Values quoted from earlier work, collected in patent publication US10874753B2, “Radiopharmaceutical conjugate of a metabolite and an EPR agent, for targeting tumour cells” (The South African Nuclear Energy Corporation Limited, priority 2014, dated 2020).

Key:
folate receptors (FR) = details: binding to surface folate receptors (FR)
[1] = binding of Ga by N4O2 chelator

Kd (folate receptors (FR)) [nM]	stability constant [1]	Compound
~1	–	Nc1nc(=O)c2nc(CNc3ccc(C(=O)N[C@@H](CCC(=O)O)C(=O)O)cc3)cnc2[nH]1 [Folate]
–	28.1	O=C(O)c1cccc(CNCCNCc2cccc(C(=O)O)n2)n1 [Cyclam H2dedpa, (1,2-bis{[[6-(carboxy)pyridine-2-yl]methyl]-amino}-ethane)]
